#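 Each compound was tested at five concentrations against cells in 96-well plates for 48 hours. At the GI50, growth is halved. Definition used: TGI = concentration required for complete inhibition of growth.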
# Tests used:
# Assay in all cases: NCI tumour cell line growth inhibition, 48 h
# COLO 205 colon = system: COLO 205 colon
# HOP-62 NSCLC = system: HOP-62 NSCLC
# OVCAR-5 ovarian = system: OVCAR-5 ovarian
# CCRF-CEM leukemia = system: CCRF-CEM leukemia
# SNB-19 CNS = system: SNB-19 CNS
# OVCAR-3 ovarian = system: OVCAR-3 ovarian
# U251 CNS = system: U251 CNS
# SK-OV-3 ovarian = system: SK-OV-3 ovarian
# CAKI-1 renal = system: CAKI-1 renal
# NCI/ADR-RES ovarian = system: NCI/ADR-RES ovarian
SMILES,TGI (COLO 205 colon) [µM],TGI (HOP-62 NSCLC) [µM],TGI (OVCAR-5 ovarian) [µM],TGI (CCRF-CEM leukemia) [µM],TGI (SNB-19 CNS) [µM],TGI (OVCAR-3 ovarian) [µM],TGI (U251 CNS) [µM],TGI (SK-OV-3 ovarian) [µM],TGI (CAKI-1 renal) [µM],TGI (NCI/ADR-RES ovarian) [µM],GI50 (OVCAR-5 ovarian) [µM],GI50 (SNB-19 CNS) [µM],GI50 (OVCAR-3 ovarian) [µM],GI50 (SK-OV-3 ovarian) [µM],GI50 (CAKI-1 renal) [µM],GI50 (HOP-62 NSCLC) [µM],GI50 (U251 CNS) [µM]
CC(=O)Oc1c(C)n(CCCl)ccc1=O,> 100,> 100,> 100,> 100,> 100,> 100,> 100,> 100,> 100,–,–,–,–,–,–,–,–
CC1=C(C(=O)Nc2ccccc2)C(c2ccc3c(c2)OCO3)C(C(=O)Nc2ccccc2)=C(C)N1,> 100,> 100,–,41,> 100,> 100,–,> 100,> 100,–,–,–,–,–,–,–,–
CCOC(=O)c1cccc(=O)c(C(=O)OCC)c1,–,> 100,> 100,65.9,–,> 100,> 100,> 100,> 100,–,–,–,–,–,–,–,–
ClC(=Nc1cccc2ccccc12)N(c1ccccc1)c1ccccc1,–,> 100,> 100,–,> 100,> 100,> 100,> 100,> 100,> 100,–,–,–,–,–,–,–
Cc1cc(C)nc(NS(=O)(=O)c2ccc(Nc3c4ccccc4nc4c(C(=O)Nc5ccc(S(N)(=O)=O)cc5)cccc34)cc2)n1,> 100,> 100,> 100,> 100,> 100,> 100,> 100,75.5,> 100,–,–,–,–,–,–,–,–
O=S(=O)(O)CS(=O)(=O)OCCCl,> 100,> 100,> 100,–,> 100,> 100,> 100,> 100,> 100,–,–,–,–,–,–,–,–
N#Cc1ccccc1NC(=O)C(=O)C(C(=O)c1ccccc1-c1ccccc1)C1OC(=O)c2ccccc21 (stereo not drawn),43.2,25.1,33,> 100,–,32.7,25.6,> 100,–,–,–,–,–,–,–,–,–
COc1ccc(/C=C2/CCCC/C2=N/O)cc1,> 100,> 100,> 100,> 100,> 100,> 100,> 100,> 100,–,–,–,–,–,–,–,–,–
CC1=C(C(=O)Nc2ccc([N+](=O)[O-])cc2)C(c2ccco2)C(C(=O)Nc2ccc([N+](=O)[O-])cc2)=C(C)N1,51.1,71.1,> 100,51.2,> 100,88.3,> 100,62.9,90.1,–,–,–,–,–,–,–,–
CCOC(=O)Cc1c(Cc2[nH]c(C(=O)OCc3ccccc3)c(CC(=O)OCC)c2CC(=O)OCC)[nH]c(C(=O)OCc2ccccc2)c1CC(=O)OCC,> 100,> 100,–,> 100,> 100,> 100,> 100,> 100,> 100,–,–,–,–,–,–,–,–
CCCCCCC(=O)C/C(CCC(=O)N(Cc1ccccc1)Cc1ccccc1)=N\Nc1ccc([N+](=O)[O-])cc1[N+](=O)[O-],> 100,> 100,> 100,56.1,> 100,> 100,> 100,> 100,> 100,–,–,–,–,–,–,–,–
COc1cc2cc(Oc3ccc(NC(=O)Nc4cccc(C(F)(F)F)c4)cc3)c(C)nc2cc1OCCN1CCCCC1,–,–,3.29,–,3.1,3.15,–,3.8,2.82,–,1.87,1.66,1.71,2.06,1.4,–,–
O=C1C2=C(c3ccccc31)C(c1ccc(Cl)cc1)N1C(=O)CCSC1=N2 (stereo not drawn),> 100,> 100,> 100,> 100,> 100,> 100,> 100,> 100,> 100,–,–,–,–,–,–,–,–
C/C(=N\NC(=S)Nc1ccc(C(=O)O)cc1)c1ccccn1,34.3,> 100,60.7,> 100,–,47.8,58.3,–,80.5,–,–,–,–,–,–,–,–
CC(=O)[CH-]C(=O)c1ccccc1.CC(=O)[CH-]C(=O)c1ccccc1.CCN(CC)CC[O-].CCN(CC)CC[O-].Cl.[Ti+4],–,> 100,> 100,–,69.5,> 100,> 100,> 100,> 100,–,59.6,23.7,28.3,32.6,40.1,37.4,25.2
CC1=COC(=O)c2ccccc2N1,> 100,> 100,> 100,> 100,> 100,> 100,> 100,> 100,> 100,–,–,–,–,–,–,–,–

# Reference: PubChem BioAssay (NCI)
